In patent US10287265B2, “Enantiomers of 8-hydroxyquinoline derivatives and the synthesis thereof” (AVIDIN Co. Ltd., priority 2015, dated 2019):
“Also recorded” adds a separate entry of the source.

Tests used:
Human 5-lipoxygenase = molecular target: T1, Human 5-lipoxygenase (Homo sapiens, UniProt P09917); experiment: 5-lipoxygenase enzyme activity, fluorescence measurement; assay type: biochemical
T1 construct: host or cells: Sf9 cells
T1 sequence (P09917 1-674): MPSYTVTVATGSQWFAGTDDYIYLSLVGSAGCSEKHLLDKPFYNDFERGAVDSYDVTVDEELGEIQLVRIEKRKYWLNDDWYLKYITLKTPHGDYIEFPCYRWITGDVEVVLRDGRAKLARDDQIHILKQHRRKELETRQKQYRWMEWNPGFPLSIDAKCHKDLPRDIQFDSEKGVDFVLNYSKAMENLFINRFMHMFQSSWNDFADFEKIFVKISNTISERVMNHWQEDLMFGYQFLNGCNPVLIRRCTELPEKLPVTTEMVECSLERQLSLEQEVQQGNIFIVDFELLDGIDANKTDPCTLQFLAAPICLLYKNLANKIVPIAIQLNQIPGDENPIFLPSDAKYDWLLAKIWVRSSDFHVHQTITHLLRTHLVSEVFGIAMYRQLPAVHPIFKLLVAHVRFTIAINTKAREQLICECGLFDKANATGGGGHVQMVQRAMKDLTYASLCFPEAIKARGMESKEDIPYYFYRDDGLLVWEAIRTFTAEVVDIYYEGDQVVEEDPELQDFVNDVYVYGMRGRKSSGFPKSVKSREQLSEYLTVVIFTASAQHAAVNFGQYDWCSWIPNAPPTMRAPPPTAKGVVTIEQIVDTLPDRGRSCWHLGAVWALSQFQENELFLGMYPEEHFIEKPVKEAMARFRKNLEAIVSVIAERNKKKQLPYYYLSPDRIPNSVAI
Experimental: Human 5-lipoxygenase produced by Sf9 cells was used throughout the experiments. The enzyme was pre-incubated with 10 μM compound according to Example 2 at room temperature, then—after the addition of 25 μM arachidonic acid substrate—the amount of generated rhodamine 123 was determined by fluorescence measurement. Percentage of inhibition rate was calculated by comparison to untreated control reactions.

EPO gene = experiment: Gene expression in primary astrocytes by qRT-PCR; assay type: cell-based, rat; settings: 3 h, Example 2 at 330 nM and 1000 nM, PBT2 at 1000 nM
Experimental: (§1) Pure astrocyte culture was obtained from neonatal rats according to the protocol found in literature (Protocols for Neural Cell Culture 2001, pp 117-127. ch 9. Ruth Cole, Jean de Vellis. Preparation of Astrocyte, Oligodendrocyte, and Microglia Cultures from Primary Rat Cerebral Cultures). Astrocytes (1 million) were cultured in 100 mm TC-treated culture dishes (Orange Scientific, Belgium) in an incubator set at 37° C. and 5% CO2 with humid air. The R-enantiomeric derivative according to Example 2 was added to cells in two final concentrations: 330 nM and 1000 nM. Cells were also treated with 1000 nM PBT2 which bears the basic structure of the R-enantiomer according to Example 2 (8-hydroxy-quinoline ring) but contains conformational differences and was developed for the treatment of neurodegenerative disorders (Pub. No.: WO/2004/007461). Treatments were carried out with a 100 μM DMSO-based stock solution. Control cells were treated with the same amount of DMSO without the agent. Each treatment was conducted in three separate culture dishes. After treatment, cells were incubated at 37° C. for 3 h, then the medium was removed, cells were washed with PBS and total RNA was extracted from cells with the Accuzol™ Total RNA Extraction Solution (Bioneer, Daejeon, South Korea), according to the manufacturer's protocol. cDNA transcription was carried out with the High Capacity cDNA Reverse Transcription Kit (Life Technologies, Foster City, Calif., USA). During the test, the expression of four genes (PGK1, EPO, HMOX-1, VEGF) controlled by HIF1a was determined by qRT-PCR, with HPRT gene serving as a control. Relative expression of genes in treated samples was compared to untreated controls. The PCR was conducted with a LightCycler® Nano Instrument (Roche, Budapest, Hungary) in the presence of UPL (Universal Probe Library) probes (HPRT: 95, HMOX1: 4, EPO: 16, VEGF: 1, PGK1: 66), specific primers (HPRT1: 5′-gaccggttctgtcatgtcg-3′, HPRT2: 5′-[…]-3′; HMOX1-1: 5′-[…]-3′, HMOX1-2: 5′-ctgcagctcctcaaacagc-3′; EPO1: 5′-[…]-3′, EPO2: 5′-ccttctgcacagcccatt-3′; VEGF1: 5′-[…]-3′, VEGF2: 5′-[…]-3′; PGK1-1: 5′-[…]-3′, PGK1-2: 5′-gacttggctccattgtcca-3′) in 20 μl PCR reaction volume with 20 ng cDNA template and 10 μl Lightcycler DNA Probes Master (5×) Reagent Kit (Roche) according to the following protocol: activation of enzyme at 95° C. for 10 min, 50 cycles: denaturation at 95° C. for 15 sec, hybridization and polymerization, then detection at 60° C. for 30 sec.

HMOX-1 gene = experiment: Gene expression in primary astrocytes by qRT-PCR; assay type: cell-based, rat; settings: 3 h, Example 2 at 330 nM and 1000 nM, PBT2 at 1000 nM
Experimental: as §1

PGK1 gene = experiment: Gene expression in primary astrocytes by qRT-PCR; assay type: cell-based, rat; settings: in the cells
Experimental: as §1

VEGF gene = experiment: Gene expression in primary astrocytes by qRT-PCR; assay type: cell-based, rat; settings: in the cells
Experimental: as §1

erythropoietin protein = experiment: Erythropoietin protein expression in hippocampus and cortex of aged animals, chronic treatment, ELISA; assay type: in vivo, mouse; settings: 18-month-old C57BL/6 female mice, 20 mg/l in drinking water for four months
Experimental: Twenty-four 18-month-old female C57BL/6 mice (Innovo Ltd., Budapest, Hungary) were treated according to the experimental setup described in Example 34. in two groups: Group 1—control group given normal drinking water, Group 2—treated with the R-enantiomer according to Example 2, administered in drinking water (20 mg/l) for four months. Brain preparation was carried out under conditions described in Example 34. Brain samples were washed with 1×PBS to remove blood, then tissues were homogenized in 1×PBS and for 3 days, they were held at −20° C. overnight and 25° C. at daytime every day. After the third round of thawing, samples were centrifuged (5 min, 5000 rpm) and the supernatant was collected for further protein expression studies. Determination of erythropoietin levels of samples was done with Quantikine® ELISA Mouse Erythropoetin (R&D Systems, cat. no.: MEPOOB) according to the manufacturer's protocol. At the end of the test, the developed colour was measured with a THERMO-LABSYSTEMS Multiskan FC Absorbance Plate Reader at 450 nm. Results obtained through ELISA and measured at 450 nm were compared to standard dilution series of purified mouse EPO. Values (pg/ml) obtained based on the dilution series were compared to actual protein content of tissues. Protein content of tissue homogenates was measured with Nanodrop-1000 adjusted for BSA protein, at 280 nm.

inhibition of 5-lipoxygenase enzyme (concentration range in words) (Human 5-lipoxygenase): inhibits in micromolar concentration
inhibition at 10 µM (Human 5-lipoxygenase; 10 μM concentration, 25 μM arachidonic acid substrate): 54%
Compound: Cc1ccnc(N[C@H](c2ccc(C(F)(F)F)cc2)c2ccc3cccnc3c2O)n1 [Example 2, 7-[(R)-[(4-Methylpyrimidin-2-yl)amino][4-(trifluoromethyl)phenyl]methyl]quinolin-8-ol]
activation of EPO gene expression (EPO gene): capable to increase the gene activity; also recorded: highest inductive effect; also recorded: dose-dependent and robust activation
activation of HMOX-1 gene expression (HMOX-1 gene): capable to increase the gene activity; also recorded: caused the induction of HMOX-1 in astrocytes; also recorded: dose-dependent and robust activation
increase of PGK-1 gene activity (PGK1 gene): capable to increase the gene activity
increase of VEGF gene activity (VEGF gene): capable to increase the gene activity
EPO protein levels in hippocampal and cortical samples compared to untreated control mice (erythropoietin protein): induced increased EPO protein levels in both hippocampal and cortical samples
